Among the data in patent publication US10011595B2 (Merck Sharp & Dohme Corp., priority 2014, dated 2018) are IC50 values, retold here.

Each structure is given as a SMILES string. pIC50: −log10 of the molar value.

Sequence of human orexin-2 receptor (O43614 whole entry): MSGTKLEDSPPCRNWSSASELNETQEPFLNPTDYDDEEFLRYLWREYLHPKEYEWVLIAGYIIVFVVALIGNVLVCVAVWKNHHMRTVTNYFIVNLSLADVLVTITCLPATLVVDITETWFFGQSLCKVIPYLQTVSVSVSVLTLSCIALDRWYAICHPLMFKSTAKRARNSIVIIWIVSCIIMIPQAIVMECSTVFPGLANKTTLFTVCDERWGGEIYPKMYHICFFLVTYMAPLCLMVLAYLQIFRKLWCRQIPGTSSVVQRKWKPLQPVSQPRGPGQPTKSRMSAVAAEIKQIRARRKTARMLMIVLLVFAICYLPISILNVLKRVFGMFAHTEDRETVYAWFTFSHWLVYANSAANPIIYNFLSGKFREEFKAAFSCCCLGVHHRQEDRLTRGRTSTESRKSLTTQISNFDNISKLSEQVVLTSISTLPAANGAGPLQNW

In the test the target is human orexin-2 receptor (Homo sapiens (Human), UniProt O43614). Nature of the test: FLIPR Ca2+ Flux Assay, orexin-2 receptor. The format is cell-based. Conditions: CHO cells expressing the human orexin-2 receptor; agonist 70 pM Ala-6,12 orexin-A; read-out: hOX2R FLIPR IC50. As to the method:
In a typical experiment the OX1 and OX2 receptor antagonistic activity of the compounds of the present invention was determined in accordance with the following experimental method. For intracellular calcium measurements, Chinese hamster ovary (CHO) cells expressing the rat orexin-1 receptor or the human orexin-2 receptor, are grown in Iscove's modified DMEM containing 2 mM L-glutamine, […], 1% hypoxanthine-thymidine supplement, 100 U/ml penicillin, 100 μg/ml streptomycin and 10% heat-inactivated fetal calf serum (FCS). The cells are seeded at 20,000 cells/well into Becton-Dickinson black 384-well clear bottom sterile plates coated with poly-D-lysine. All reagents were from GIBCO-Invitrogen Corp. The seeded plates are incubated overnight at 37° C. and 5% CO2. Ala-6,12 human orexin-A as the agonist is prepared as a 1 mM stock solution in 1% bovine serum albumin (BSA) and diluted in assay buffer (HBSS containing 20 mM HEPES, 0.1% BSA and 2.5 mM probenecid, pH7.4) for use in the assay at a final concentration of 70 pM. Test compounds are prepared as 10 mM stock solution in DMSO, then diluted in 384-well plates, first in DMSO, then assay buffer. On the day of the assay, cells are washed 3 times with 100 μl assay buffer and then incubated for 60 min (37° C., 5% CO2) in 60 μl assay buffer containing 1 μM Fluo-4AM ester, 0.02% pluronic acid, and 1% BSA. The dye loading solution is then aspirated and cells are washed 3 times with 100 μl assay buffer. 30 μl of that same buffer is left in each well. Within the Fluorescent Imaging Plate Reader (FLIPR, Molecular Devices), test compounds are added to the plate in a volume of 25 μl, incubated for 5 min and finally 25 μl of agonist is added. Fluorescence is measured for each well at 1 second intervals for 5 minutes and the height of each fluorescence peak is compared to the height of the fluorescence peak induced by 70 pM Ala-6,12 orexin-A with buffer in place of antagonist. For each antagonist, IC50 value (the concentration of compound needed to inhibit 50% of the agonist response) is determined. Alternatively, compound potency can be assessed by a radioligand binding assay (described in Bergman et. al. Bioorg. Med. Chem. Lett. 2008, 18, 1425-1430) in which the inhibition constant (Ki) is determined in membranes prepared from CHO cells expressing either the OX1 or OX2 receptor. The intrinsic orexin receptor antagonist activity of a compound which may be used in the present invention may be determined by these assays.
(In general: Calcium assays in cells follow changes in intracellular calcium, usually with a dye or a luminescent sensor.)
For the compound `CCN(CCN(C)c1cccc(C(C)(C)O)n1)C(=O)c1ccccc1-n1cccn1` [Example I-10, N-ethyl-N-(2-((6-(2-hydroxypropan-2-yl)pyridin-2-yl)(methyl)amino)ethyl)-2-(1H-pyrazol-1-yl)benzamide], the pIC50 (in general, the negative decadic logarithm of the IC50, by convention in mol/L) is 7.03.
Under `CCN(CCN(C)c1cc(C#N)ccn1)C(=O)c1ccccc1-n1ccnc1` [Example F-9, N-{2-[(4-cyanopyridin-2-yl)(methyl)amino]ethyl}-N-ethyl-2-(1H-imidazol-1-yl)benzamide] stands 5.00.
`CCN(CCN(CC)c1nc(C)cc(C)n1)C(=O)c1ccccc1-n1nccn1` [Example C-1, N-(2-((4,6-dimethylpyrimidin-2-yl)(ethyl)amino)ethyl)-N-ethyl-2-(2H-H-1,2,3-triazol-2-yl)benzamide]: the pIC50 is 7.44.
On to `CCN(CCN(C)c1cccc(C(C)(C)O)n1)C(=O)c1cccnc1OCC(F)F` [Example I-16, 2-(2,2-difluoroethoxy)-N-ethyl-N-(2-((6-(2-hydroxypropan-2-yl)pyridin-2-yl)(methyl)amino)ethyl)nicotin-amide], for which the pIC50 is 6.63.
Take `CCN(CCN(C)c1cc(C#N)ccn1)C(=O)c1ccccc1OCCF` [Example F-13, N-{2-[(4-cyanopyridin-2-yl)(methyl)amino]ethyl}-N-ethyl-2-(2-fluoroethoxy)benzamide]: the pIC50 was 7.32.
Next, `CN(CCN(CC1CC1)C(=O)c1ccccc1-n1nccn1)c1cc(C#N)ccn1` [Example G-7, N-(2-((4-cyanopyridin-2-yl)(methyl)amino)ethyl)-N-(cycloproplmethyl)-2-(2H-1,2,3-triazol-2-yl)benzamide]: 7.45.
Under `CCN(CCN(C)c1ncc(Cl)c(C(F)(F)F)n1)C(=O)c1ccccc1-n1nccn1` [Example E-16, N-(2-{[5-chloro-4-(trifluoromethyl)pyrimidin-2-yl](methyl)amino}ethyl)-N-ethyl-2-(2H-1,2,3-triazol-2-yl)benzamide] stands 7.07; under `CCN(CCN(C)c1cc(C#N)ccn1)C(=O)c1ccccc1-c1nnn[nH]1` [Example F-5, N-{2-[(4-cyanopyridin-2-yl)(methyl)amino]ethyl}-N-ethyl-2-(1H-tetrazol-5-yl)benzamide], 5.00.
Under `CCN(CCN(C)c1nc(C)cc(C)n1)C(=O)c1ccccc1OCC(F)(F)F` [Example B-17, N-{2-[(4,6-dimethylpyrimidin-2-yl)(methyl)amino]ethyl}-N-ethyl-2-(2,2,2-trifluoroethoxy)-benzamide] stands 7.95.
Consider `CCN(CCN(C)c1cc(C#N)ccn1)C(=O)c1ccccc1-n1cnnn1` [Example F-25, N-{2-[(4-cyanopyridin-2-yl)(methyl)amino]ethyl}-N-ethyl-2-(1H-tetrazol-1-yl)benzamide], for which the negative logarithm of the IC50 (pIC50) is 5.36.
Turning to `CCN(CCN(C)c1nccc(C(C)(C)O)n1)C(=O)c1cccnc1-n1cccn1` [Example H-33, N-ethyl-N-[2-[[4-(1-hydroxy-1-methyl-ethyl)pyrimidin-2-yl]-methyl-amino]ethyl]-2-pyrazol-1-yl-pyridine-3-carboxamide], the negative-log IC50 (pIC50) was 7.43.
Next, `CCN(CCN(C)c1nc(C)cc(C)n1)C(=O)c1nccnc1-c1ccccn1` [Example B-33, N-{2-[(4,6-dimethylpyrimidin-2-yl)(methyl)amino]ethyl}-N-ethyl-3-pyridin-2-ylpyrazine-2-carboxamide]: 7.64; `CCN(CCN(C)c1cccc(C(C)(C)O)n1)C(=O)c1ccccc1OCC(F)F` [Example I-4, 2-(2,2-difluoroethoxy)-N-ethyl-N-(2-((6-(2-hydroxypropan-2-yl)pyridin-2-yl)(methyl)amino)ethyl)benzamide]: 6.75.
Under `CCN(CCN(C)c1cccc(C(C)(C)O)n1)C(=O)c1ncccc1-n1nccn1` [Example I-9, N-ethyl-N-(2-((6-(2-hydroxypropan-2-yl)pyridin-2-yl)(methyl)amino)ethyl)-3-(2H-1,2,3-triazol-2-yl)picolinamide] stands 6.51; under `CCOc1ncccc1C(=O)N(CC)CCN(C)c1cccc(C(C)(C)O)n1` [Example I-25, 2-ethoxy-N-ethyl-N-(2-((6-(2-hydroxypropan-2-yl)pyridin-2-yl)(methyl)amino)ethyl)nicotin-amide], 6.33; under `CCN(CCN(C)c1cccc(C(C)(C)O)n1)C(=O)c1cccnc1CC(F)(F)F` [Example I-19, N-ethyl-N-(2-((6-(2-hydroxypropan-2-yl)pyridin-2-yl)(methyl)amino)ethyl)-2-(2,2,2-trifluoroethyl)nicotinamide], 5.64.
With `CCN(CCN(C)c1cc(C#N)ccn1)C(=O)c1cccnc1Oc1ccccc1` [Example F-7, N-{2-[(4-cyanopyridin-2-yl)(methyl)amino]ethyl}-N-ethyl-2-phenoxypyridine-3-carboxamide], the negative logarithm of the IC50 (pIC50) is 5.00.
For the compound `CCN(CCN(C)c1nc(C)cc(C)n1)C(=O)c1cccnc1OCC(F)(F)F` [Example B-11, N-(2-((4,6-dimethylpyrimidin-2-yl)(methyl)amino)ethyl)-N-ethyl-2-(2,2,2-trifluoroethoxy)nicotinamide], the negative-log IC50 (pIC50) was 7.70.
For the compound `CCN(CCN(C)c1nccc(C(C)(C)O)n1)C(=O)c1ncccc1-c1ccccc1` [Example H-31, N-ethyl-N-(2-((4-(2-hydroxypropan-2-yl)pyrimidin-2-yl)(methyl)amino)ethyl)-3-phenylpicolinamide], the pIC50 is 7.64.
Next, `CCN(CCN(C)c1cc(C#N)ccn1)C(=O)c1cccc2oc(=O)[nH]c12` [Example F-23, N-{2-[(4-cyanopyridin-2-yl)(methyl)amino]ethyl}-N-ethyl-2-oxo-2,3-dihydro-1,3-benzoxazole-4-carboxamide]: 5.00; `CCN(CCN(C)c1nc(Cl)cc(N(C)C)n1)C(=O)c1ccccc1-n1nccn1` [Example E-11, N-(2-{[4-chloro-6-(dimethylamino)pyrimidin-2-yl](methyl)amino}ethyl)-N-ethyl-2-(2H-1,2,3-triazol-2-yl)benzamide]: 7.74.
Next, `CCN(CCN(C)c1nc(OC)cc(OC)n1)C(=O)c1ccccc1-n1nccn1` [Example E-9, N-{2-[(4,6-dimethoxypyrimidin-2-yl)(methyl)amino]ethyl}-N-ethyl-2-(2H-1,2,3-triazol-2-yl)benzamide]: 6.47.
Regarding `CCN(CCN(C)c1nccc(C#N)n1)C(=O)c1ccccc1-n1nccn1` [Example E-10, N-{2-[(4-cyanopyrimidin-2-yl)(methyl)amino]ethyl}-N-ethyl-2-(2H-1,2,3-triazol-2-yl)benzamide], the negative-log IC50 (pIC50) is 6.61.
On to `CCN(CCN(C)c1nc(C)cc(C)n1)C(=O)c1ncccc1-c1ccccc1` [Example B-27, N-{2-[(4,6-dimethylpyrimidin-2-yl)(methyl)amino]ethyl}-N-ethyl-3-phenylpyridine-2-carboxamide], for which the pIC50 is 7.90.
With `CCN(CCN(C)c1cc(C#N)ccn1)C(=O)c1cccc2[nH]c(=O)oc12` [Example F-18, N-{2-[(4-cyanopyridin-2-yl)(methyl)amino]ethyl}-N-ethyl-2-oxo-2,3-dihydro-1,3-benzoxazole-7-carboxamide], the pIC50 is 5.00.
Under `CCN(CCN(C)c1cc(C#N)ccn1)C(=O)c1cccnc1OCc1ccccc1` [Example F-6, 2-(benzyloxy)-N-{2-[(4-cyanopyridin-2-yl)(methyl)amino]ethyl}-N-ethylpyridine-3-carboxamide] stands 7.01; under `CCN(CCN(C)c1nccc(C(C)(C)O)n1)C(=O)c1cccnc1OC(C)C` [Example H-14, N-ethyl-N-(2-((4-(2-hydroxypropan-2-yl)pyrimidin-2-yl)(methyl)amino)ethyl)-2-isopropoxynicotinamide], 7.18; under `CCN(CCN(C)c1nccc(C(C)(C)O)n1)C(=O)c1ccccc1-n1nccn1` [Example H-1, N-ethyl-N-(2-((4-(2-hydroxypropan-2-yl)pyrimidin-2-yl)(methy)amino)ethyl)-2-(2H-1,2,3-triazol-2-yl)benzamide], 7.96.
For the compound `CCN(CCN(C)c1cc(C#N)ccn1)C(=O)c1cc(F)ccc1-n1nccn1` [Example F-30, N-{2-[(4-cyanopyridin-2-yl)(methyl)amino]ethyl}-N-ethyl-5-fluoro-2-(2H-1,2,3-triazol-2-yl)benzamide], the pIC50 is 7.61.
Consider `CCN(CCN(C)c1cc(C#N)ccn1)C(=O)c1ccccc1-n1cc(C)nn1` [Example F-21, N-{2-[(4-cyanopyridin-2-yl)(methyl)amino]ethyl}-N-ethyl-2-(4-methyl-1H-1,2,3-triazol-1-yl)benzamide], for which the pIC50 is 6.47.
